US8507219B2, “Method of treating inflammation with statins” (MUSC Foundation for Research Development, priority 1997, dated 2013)

Key:
[1] = test system: NF-kβ; type: cell-based, rat; conditions: LPS 1.0 μg/ml, 1 h
Procedure: Preparation of Nuclear Extracts and Electrophoretic Mobility shift assay Nuclear extracts from stimulated or unstimulated astrocytes (1×10^7 cells) were prepared using the method of Dignam et al. (1983) with slight modification. Cells were harvested, washed twice with ice-cold phosphate-buffered saline and lysed in 400 μl of buffer A (10 mM HEPES, pH 7.9, 10 mM KCl, 2 mM MgCl2, 0.5 mM DTT, 1 mM PMSF, 5 μg/ml aprotinin, 5 μg/ml pepstatin A, and 5 μg/ml leupeptin (Sigma, St. Louis, Mo.) containing 0.1% Nondet P-40 for 15 min on ice, vortexed vigorously for 15 s, and centrifuged at 14,000 rpm for 30 s. The pelleted nuclei were resuspended in 40 μl of buffer B (20 mM HEPES, pH 7.9, 25% (v/v) glycerol, 0.42 M NaCl, 1.5 mM MgCl2, 0.2 mM EDTA, 0.5 mM DTT, 1 mM PMSF, 5 μg/ml aprotinin, 5 μg/ml pepstatin A, and 5 μg/ml leupeptin). After 30 min on ice, lysates were centrifuged at 14,000 rpm for 10 min. Supernatants containing the nuclear proteins were diluted with 20 μl of modified buffer C (20 mM HEPES, pH 7.9, 20% (v/v) glycerol, 0.05 M KCl, 0.2 mM EDTA, 0.5 mM DTT, and 0.5 mM PMSF) and stored at −70° C. until use. Nuclear extracts were used for the electrophoretic mobility shift assay using the NF-kβ DNA binding protein detection system kit (GIBCO/BRL), according to the manufacturer's protocol.
Preparation of nuclear extracts and electrophoretic mobility shift assay Nuclear extracts from stimulated or unstimulated astrocytes (1×10^7 cells) were prepared as described (Dignam et al., 1983) with slight modification. Cells were harvested, washed twice with ice-cold phosphate-buffered saline and lysed in 400 μl of buffer A (10 mM HEPES, pH 7.9, 10 mM KCl, 2 mM MgCl2, 0.5 mM DTT, 1 mM PMSF, 5 μg/ml aprotinin, 5 μg/ml pepstatin A, and 5 μg/ml leupeptin) containing 0.1% Nonidet P40 for 15 min on ice, vortexed vigorously for 15 s, and centrifuged at 14,000 rpm for 30 s. […]

[2] = test system: iNOS activity in rat primary astrocytes; assay: iNOS activity (arginine to citrulline) in homogenates of treated rat primary astrocytes; type: cell-based; conditions: 10 μM
Procedure: NOS activity was measured directly by production of L-[2,3,4,5-^3H]citrulline from L-[2,3,4,5-^3H] arginine (Feinstein et al., 1994a). […] Assays were carried out for 30 to 40 min and the production of L-[2,3,4,5-^3H] citrulline was linear. The reactions were stopped by addition of 800 μl of ice-cold 20 mM HEPES (pH 5.5) followed by addition of 2 ml of Dowex-50W equilibrated in the same buffer. The samples were then centrifuged and the concentration of L-[^3H]citrulline was determined in the supernatant by liquid scintillation counting.
Dose Dependence of Forskolin Inhibition of the LPS Stimulation of iNOS Astrocytes were incubated with different concentrations of forskolin 15 min before the addition of 1 μg/ml LPS, and after 24 h the iNOS activity was measured as nitrite concentrations in the supernatant and conversion of arginine to citrulline in the cellular homogenates (FIG. 1). The level of nitrite and iNOS activity were inhibited to a similar degree at all the concentrations of forskolin tested. […] . […] This may be due to the fact that PKA was already completely activated in extracts of cells incubated with 10 μM forskolin. The PKA activity increased with the increase in forskolin concentration. The reciprocal relationship of production of NO and iNOS activity with PKA activity supports the conclusion that PKA plays a pivotal role in the regulation of iNOS expression in astrocytes.

[3] = test system: control human skin fibroblasts; assay: β-oxidation of lignoceric acid in control human skin fibroblasts; type: cell-based
[4] = test system: cultured skin fibroblasts of X-ALD; assay: VLCFA ratios (C26:0/C22:0, C24:0/C22:0) in X-ALD skin fibroblasts; type: cell-based, human; conditions: about 15 days of treatment

Row | Compound | LPS-induced activation of NF-kβ [1] | LPS induced iNOS activity and PKA activity [2] | Lignoceric acid β-oxidation [3] [pmol/h/mg protein] | ratios of C26:0/C22:0 and C24:0/C22:0 / level of VLCFA [4]
1 | COc1cccc(-c2cc(=O)c3ccccc3o2)c1N [PD 98059] | inhibits the LPS-induced activation of NF-kB and the induction of iNOS in astrocytes |  |  | 
2 | C=C[C@@]1(C)CC(=O)[C@@H]2[C@@]3(C)CCCC(C)(C)[C@@H]3[C@H](O)[C@H](OC(C)=O)[C@@]2(C)O1 [dideoxyforskolin, 1,9-dideoxyforskolin] |  | neither inhibited the LPS induced iNOS activity nor stimulated the PKA activity | 571.4 ± 39.6 | had no effect on the ratios of C26:0/C22:0 and C24:0/C22:0
